Test results as given in ChEMBL document CHEMBL4828770, “Structural and Activity Relationships of 6-Sulfonyl-8-Nitrobenzothiazinones as Antitubercular Agents” (J Med Chem, 2021).
Calls of active or inactive are those of the source. The calls are words filed in the database; no cut-off is given here.

Tests used:
[1] = tested on: Mycobacterium tuberculosis; test: Antimycobacterial activity against Mycobacterium tuberculosis H37Rv ACTT 25618 assessed as inhibition of visible growth incubated for 7 days by micro plate alamar blue assay; type: functional; settings: H37Rv ACTT 25618, 168 h, time 7 day
[2] = Metabolic stability in human liver microsomes assessed as half life in presence of NADPH by LC/MS analysis; type: ADME, Microsome
[3] = Metabolic stability in human liver microsomes assessed as clearance in presence of NADPH by LC/MS analysis; type: ADME, Microsome; settings: read-out: CLH
[4] = target: T1, Decaprenylphosphoryl-beta-D-ribose oxidase (Mycobacterium tuberculosis (strain ATCC 25618 / H37Rv)) (UniProt P9WJF1); test: Inhibition of Mycobacterium tuberculosis H37Rv DprE1 assessed as increase in trehalose monomycolates accumulation at 100 x MIC incubated for 24 hrs using [14C]acetate by TLC based metabolic labelling assay
T1 sequence (whole entry): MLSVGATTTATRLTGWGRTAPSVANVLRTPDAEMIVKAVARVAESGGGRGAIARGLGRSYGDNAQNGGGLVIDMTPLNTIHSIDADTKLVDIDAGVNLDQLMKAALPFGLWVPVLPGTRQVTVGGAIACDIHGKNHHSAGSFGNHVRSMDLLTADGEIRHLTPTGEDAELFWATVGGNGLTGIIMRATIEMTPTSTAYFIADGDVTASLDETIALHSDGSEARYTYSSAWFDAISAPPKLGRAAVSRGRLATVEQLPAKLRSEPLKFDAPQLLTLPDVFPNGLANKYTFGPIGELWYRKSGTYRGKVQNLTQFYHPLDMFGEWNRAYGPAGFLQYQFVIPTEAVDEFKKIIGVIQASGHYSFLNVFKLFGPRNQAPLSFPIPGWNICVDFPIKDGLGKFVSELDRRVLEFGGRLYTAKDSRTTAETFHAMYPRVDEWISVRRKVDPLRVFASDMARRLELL

[5] = target: T2, Decaprenylphosphoryl-beta-D-ribose oxidase (Mycobacterium tuberculosis (strain ATCC 25618 / H37Rv), UniProt P9WJF1); test: Inhibition of Mycobacterium tuberculosis recombinant DprE1 expressed in Escherichia coli assessed as formation of resorufin using FPR as substrate by Amplex Red […] coupled assay
T2 sequence (P9WJF1 whole entry): T1 sequence (whole entry)

[6] = target: T1, Decaprenylphosphoryl-beta-D-ribose oxidase (Mycobacterium tuberculosis (strain ATCC 25618 / H37Rv)); test: Inhibition of Mycobacterium tuberculosis H37Rv DprE1 assessed as increase in trehalose dimycolates accumulation at 100 x MIC incubated for 24 hrs using [14C]acetate by TLC based metabolic labelling assay
[7] = tested on: HepG2; test: Cytotoxicity against human HepG2 cells assessed as cell viability incubated for 48 hrs by CCK-8 assay; type: cell-based; settings: hepg2, 48 h

## CN(Cc1coc(-c2ccc(F)cc2)n1)c1nc(=O)c2cc(S(C)(=O)=O)cc([N+](=O)[O-])c2s1
[1]
  MIC: 0.031 µM

## COc1cccc(-n2cc(CN(C)c3nc(=O)c4cc(S(C)(=O)=O)cc([N+](=O)[O-])c4s3)nn2)c1
[1]
  MIC: 0.199 µM

## CN(Cc1csc(-c2cccc(F)c2)n1)c1nc(=O)c2cc(S(C)(=O)=O)cc([N+](=O)[O-])c2s1
[1]
  MIC: 0.024 µM

## CN(Cc1nnc(-c2ccc(F)cc2)o1)c1nc(=O)c2cc(S(C)(=O)=O)cc([N+](=O)[O-])c2s1
[1]
  MIC: 0.061 µM

## CC(C)S(=O)(=O)c1cc([N+](=O)[O-])c2sc(N3CCN(CC4CCCCC4)CC3)nc(=O)c2c1
[1]
  MIC: < 0.001 µM

## CN(Cc1ccc2c(c1)OCCO2)c1nc(=O)c2cc(S(C)(=O)=O)cc([N+](=O)[O-])c2s1
[1]
  MIC: 0.066 µM

## CN(Cc1cn(-c2cccc(C(F)(F)F)c2)nn1)c1nc(=O)c2cc(S(C)(=O)=O)cc([N+](=O)[O-])c2s1
[1]
  MIC: 0.044 µM

## CN(Cc1nnc(-c2ccc(F)c(F)c2)o1)c1nc(=O)c2cc(S(C)(=O)=O)cc([N+](=O)[O-])c2s1
[1]
  MIC: 0.043 µM

## CN(CCN(C)c1nc(=O)c2cc(S(C)(=O)=O)cc([N+](=O)[O-])c2s1)CC1CCCCC1
[1]
  MIC: 0.148 µM

## CN(Cc1nnc(-c2ccc(F)cc2F)s1)c1nc(=O)c2cc(S(C)(=O)=O)cc([N+](=O)[O-])c2s1
[1]
  MIC: 0.023 µM

## CN(Cc1cn(-c2cccc(Br)c2)nn1)c1nc(=O)c2cc(S(C)(=O)=O)cc([N+](=O)[O-])c2s1
[1]
  MIC: 0.044 µM

## CN(Cc1cn(-c2cccc(Cl)c2)nn1)c1nc(=O)c2cc(S(C)(=O)=O)cc([N+](=O)[O-])c2s1
[1]
  MIC: 0.089 µM

## CN(Cc1cn(C2CCCCC2)nn1)c1nc(=O)c2cc(S(C)(=O)=O)cc([N+](=O)[O-])c2s1
[1]
  MIC: 0.047 µM

## CS(=O)(=O)c1cc([N+](=O)[O-])c2sc(N3CCN(CC4CCCCC4)CC3)nc(=O)c2c1
[2]
  half-life: 25.8 min
[3]
  CLint scaled: 89.8 mL/min/kg

## CN(Cc1nnc(-c2ccccc2)o1)c1nc(=O)c2cc(S(C)(=O)=O)cc([N+](=O)[O-])c2s1
[4]
  Activity: Active
[5]
  IC50: 2100 nM
[2]
  half-life: 45.9 min
[6]
  Activity: Active
[7]
  Activity: Non-Toxic
[1]
  MIC: 0.03 µM
[3]
  CLint scaled: 37.8 mL/min/kg

## CN(Cc1csc(-c2ccc(F)cc2)n1)c1nc(=O)c2cc(S(C)(=O)=O)cc([N+](=O)[O-])c2s1
[1]
  MIC: 0.057 µM

## CN(Cc1cn(-c2ccc(F)cc2)nn1)c1nc(=O)c2cc(S(C)(=O)=O)cc([N+](=O)[O-])c2s1
[1]
  MIC: 0.024 µM

## CCN(Cc1cn(-c2ccccc2)nn1)c1nc(=O)c2cc(S(C)(=O)=O)cc([N+](=O)[O-])c2s1
[1]
  MIC: 0.201 µM

## C[C@H](c1cn(-c2ccccc2)nn1)N(C)c1nc(=O)c2cc(S(C)(=O)=O)cc([N+](=O)[O-])c2s1
[1]
  MIC: > 4.2 µM

## CN(c1nc(=O)c2cc(S(C)(=O)=O)cc([N+](=O)[O-])c2s1)C1(c2cn(-c3ccccc3)nn2)CC1
[1]
  MIC: > 4 µM

## CN(Cc1cn(Cc2cnoc2)nn1)c1nc(=O)c2cc(S(C)(=O)=O)cc([N+](=O)[O-])c2s1
[1]
  MIC: > 2 µM

## CN(Cc1nnc(-c2ccc(F)cc2)s1)c1nc(=O)c2cc(S(C)(=O)=O)cc([N+](=O)[O-])c2s1
[1]
  MIC: 0.047 µM

## Cc1ccc(-n2cc(CN(C)c3nc(=O)c4cc(S(C)(=O)=O)cc([N+](=O)[O-])c4s3)nn2)cc1
[1]
  MIC: 0.115 µM

## CN(Cc1cn(-c2cccc(C#N)c2)nn1)c1nc(=O)c2cc(S(C)(=O)=O)cc([N+](=O)[O-])c2s1
[1]
  MIC: 0.048 µM

## CN(Cc1cn(-c2cc(F)cc(F)c2)nn1)c1nc(=O)c2cc(S(C)(=O)=O)cc([N+](=O)[O-])c2s1
[1]
  MIC: 0.022 µM

## CN(Cc1nnc(-c2ccc(F)cc2F)o1)c1nc(=O)c2cc(S(C)(=O)=O)cc([N+](=O)[O-])c2s1
[1]
  MIC: 0.045 µM

## CN(Cc1cn(-c2c(F)cccc2F)nn1)c1nc(=O)c2cc(S(C)(=O)=O)cc([N+](=O)[O-])c2s1
[1]
  MIC: 0.28 µM

## CN(Cc1cn(Cc2ccccc2)nn1)c1nc(=O)c2cc(S(C)(=O)=O)cc([N+](=O)[O-])c2s1
[1]
  MIC: 0.309 µM

## CN(Cc1cn(-c2cccnc2)nn1)c1nc(=O)c2cc(S(C)(=O)=O)cc([N+](=O)[O-])c2s1
[1]
  MIC: 0.533 µM

## CN(Cc1cn(-c2cccc(I)c2)nn1)c1nc(=O)c2cc(S(C)(=O)=O)cc([N+](=O)[O-])c2s1
[1]
  MIC: 0.055 µM

## CN(Cc1csc(-c2ccccc2)n1)c1nc(=O)c2cc(S(C)(=O)=O)cc([N+](=O)[O-])c2s1
[2]
  half-life: 16.2 min
[1]
  MIC: 0.023 µM
[3]
  CLint scaled: 107 mL/min/kg

## CN(Cc1cn(-c2cnoc2)nn1)c1nc(=O)c2cc(S(C)(=O)=O)cc([N+](=O)[O-])c2s1
[1]
  MIC: 0.065 µM

## CN(Cc1nnc(-c2ccccc2)s1)c1nc(=O)c2cc(S(C)(=O)=O)cc([N+](=O)[O-])c2s1
[2]
  half-life: 13.2 min
[1]
  MIC: 0.037 µM
[3]
  CLint scaled: 128 mL/min/kg

## Cc1cccc(-n2cc(CN(C)c3nc(=O)c4cc(S(C)(=O)=O)cc([N+](=O)[O-])c4s3)nn2)c1
[1]
  MIC: 0.1 µM

## C[C@@H](c1cn(-c2ccccc2)nn1)N(C)c1nc(=O)c2cc(S(C)(=O)=O)cc([N+](=O)[O-])c2s1
[1]
  MIC: 0.252 µM

## CN(Cc1nnc(-c2cc(F)cc(F)c2)o1)c1nc(=O)c2cc(S(C)(=O)=O)cc([N+](=O)[O-])c2s1
[1]
  MIC: 0.022 µM

## CN(Cc1cn(-c2cc(F)ccc2F)nn1)c1nc(=O)c2cc(S(C)(=O)=O)cc([N+](=O)[O-])c2s1
[1]
  MIC: 0.011 µM

## CN(Cc1cn(-c2ccccc2F)nn1)c1nc(=O)c2cc(S(C)(=O)=O)cc([N+](=O)[O-])c2s1
[1]
  MIC: 0.031 µM

## O=c1nc(N2CCN(CC3CCCCC3)CC2)sc2c([N+](=O)[O-])cc(C(F)(F)F)cc12 [MACOZINONE]
[2]
  half-life: 76.3 min
[1]
  MIC: < 0.2 ng/mL
[3]
  CLint scaled: 22.8 mL/min/kg

## CN(Cc1coc(C2CCCCC2)n1)c1nc(=O)c2cc(S(C)(=O)=O)cc([N+](=O)[O-])c2s1
[1]
  MIC: 0.433 µM

## CN(Cc1cn(-c2ccc(F)c(F)c2)nn1)c1nc(=O)c2cc(S(C)(=O)=O)cc([N+](=O)[O-])c2s1
[1]
  MIC: 0.022 µM

## CN(Cc1nnc(-c2ccc(F)c(F)c2)s1)c1nc(=O)c2cc(S(C)(=O)=O)cc([N+](=O)[O-])c2s1
[1]
  MIC: 0.031 µM

## CN(Cc1nnc(-c2cccc(F)c2)o1)c1nc(=O)c2cc(S(C)(=O)=O)cc([N+](=O)[O-])c2s1
[1]
  MIC: 0.049 µM

## CN(Cc1ccccc1)c1nc(=O)c2cc(S(C)(=O)=O)cc([N+](=O)[O-])c2s1
[1]
  MIC: 0.253 µM

## CN(Cc1coc(-c2ccccc2)n1)c1nc(=O)c2cc(S(C)(=O)=O)cc([N+](=O)[O-])c2s1
[5]
  IC50: 940 nM
[2]
  half-life: 21 min
[1]
  MIC: 0.021 µM
[3]
  CLint scaled: 82.7 mL/min/kg

## CN(Cc1cn(-c2ccc(F)cc2F)nn1)c1nc(=O)c2cc(S(C)(=O)=O)cc([N+](=O)[O-])c2s1
[1]
  MIC: 0.024 µM

## CN(Cc1cn(-c2ccccc2)nn1)c1nc(=O)c2cc(S(C)(=O)=O)cc([N+](=O)[O-])c2s1
[4]
  Activity: Active
[5]
  IC50: 780 nM
[2]
  half-life: 53.7 min
[6]
  Activity: Active
[7]
  Activity: Non-Toxic
[1]
  MIC: 0.0006 µM
[3]
  CLint scaled: 32.4 mL/min/kg

## CN(Cc1nnc(-c2cc(F)cc(F)c2)s1)c1nc(=O)c2cc(S(C)(=O)=O)cc([N+](=O)[O-])c2s1
[1]
  MIC: 0.023 µM

## CCS(=O)(=O)c1cc([N+](=O)[O-])c2sc(N3CCN(CC4CCCCC4)CC3)nc(=O)c2c1
[1]
  MIC: < 0.001 µM

## CN(Cc1cn(-c2cccc(F)c2)nn1)c1nc(=O)c2cc(S(C)(=O)=O)cc([N+](=O)[O-])c2s1
[1]
  MIC: 0.014 µM

## CN(Cc1nnc(-c2cccc(F)c2)s1)c1nc(=O)c2cc(S(C)(=O)=O)cc([N+](=O)[O-])c2s1
[1]
  MIC: 0.045 µM
